Laboratory results as given in ChEMBL document CHEMBL3885881, “DrugMatrix”.

Organism: Rattus norvegicus
Assay: DrugMatrix - Regimen: Daily Repeat
Format: toxicity, organism-based, Sprague-Dawley
Design: regimen Daily Repeat, gender Male, age 6-8 weeks
Details: in vivo, po, route oral GAVAGE, dose level High, vehicle 100 % SALINE; for HEMOGLOBIN / LEUKOCYTE COUNT / LYMPHOCYTE / MEAN CORPUSCULAR HEMOGLOBIN / MEAN CORPUSCULAR HEMOGLOBIN CONCENTRATION / MONOCYTE / NEUTROPHIL / NUCLEATED RED BLOOD CELLS / PLATELET COUNT / ABSOLUTE BASOPHIL / ABSOLUTE EOSINOPHIL / ABSOLUTE LYMPHOCYTE / ABSOLUTE MONOCYTE / ABSOLUTE SEGMENTED NEUTROPHIL / BASOPHIL / EOSINOPHIL / ERYTHROCYTE COUNT / HEMATOCRIT: tissue Blood; for ALANINE AMINOTRANSFERASE / ALBUMIN / ALKALINE PHOSPHATASE / ASPARTATE AMINOTRANSFERASE / BLOOD UREA NITROGEN / CARBON DIOXIDE / CHLORIDE / CHOLESTEROL / CREATINE PHOSPHOKINASE / CREATININE / GLUCOSE / LACTATE DEHYDROGENASE / LIPASE / PHOSPHORUS / SODIUM / TOTAL BILIRUBIN / TOTAL PROTEIN: tissue Plasma

**Q.** What does the source list for `CN(C)C=O` [DIMETHYLFORMAMIDE]?
**A.** HEMOGLOBIN (1400 mg/kg, 120 h, time 5 day): 16.7 G/DL; LEUKOCYTE COUNT (1400 mg/kg, 120 h, time 5 day): 7.95 x10E3/uL; LYMPHOCYTE (1400 mg/kg, 120 h, time 5 day): 93%; MEAN CORPUSCULAR HEMOGLOBIN (1400 mg/kg, 120 h, time 5 day): 22.95 pg; MEAN CORPUSCULAR HEMOGLOBIN CONCENTRATION (1400 mg/kg, 120 h, time 5 day): 36.55 G/DL; MONOCYTE (1400 mg/kg, 120 h, time 5 day): 0.5%; NEUTROPHIL (1400 mg/kg, 120 h, time 5 day): 6.5%; NUCLEATED RED BLOOD CELLS (1400 mg/kg, 120 h, time 5 day): 0 /100WBC; PLATELET COUNT (1400 mg/kg, 120 h, time 5 day): 998 x10E3/uL; ALANINE AMINOTRANSFERASE (1400 mg/kg, 120 h, time 5 day): 5117.67 u/L; ALBUMIN (1400 mg/kg, 120 h, time 5 day): 4.53 G/DL; ALKALINE PHOSPHATASE (1400 mg/kg, 120 h, time 5 day): 286.67 u/L; ASPARTATE AMINOTRANSFERASE (1400 mg/kg, 120 h, time 5 day): 8354 u/L; BLOOD UREA NITROGEN (1400 mg/kg, 120 h, time 5 day): 21 mg/dL; CARBON DIOXIDE (1400 mg/kg, 120 h, time 5 day): 35 mmol/L; CHLORIDE (1400 mg/kg, 120 h, time 5 day): 92 MEQ/L; CHOLESTEROL (1400 mg/kg, 120 h, time 5 day): 136 mg/dL; CREATINE PHOSPHOKINASE (1400 mg/kg, 120 h, time 5 day): 493.33 u/L; CREATININE (1400 mg/kg, 120 h, time 5 day): 0.36 mg/dL; GLUCOSE (1400 mg/kg, 120 h, time 5 day): 145 mg/dL; LACTATE DEHYDROGENASE (1400 mg/kg, 120 h, time 5 day): 42966.33 u/L; LIPASE (1400 mg/kg, 120 h, time 5 day): 12.33 u/L; PHOSPHORUS (1400 mg/kg, 120 h, time 5 day): 13.03 mg/dL; SODIUM (1400 mg/kg, 120 h, time 5 day): 146.2 MEQ/L; TOTAL BILIRUBIN (1400 mg/kg, 120 h, time 5 day): 0.5 mg/dL; TOTAL PROTEIN (1400 mg/kg, 120 h, time 5 day): 7.33 G/DL; ABSOLUTE BASOPHIL (2100 mg/kg, 72 h, time 3 day): 0 CELLS/uL; ABSOLUTE EOSINOPHIL (2100 mg/kg, 72 h, time 3 day): 16 CELLS/uL; ABSOLUTE LYMPHOCYTE (2100 mg/kg, 72 h, time 3 day): 6718 CELLS/uL; ABSOLUTE MONOCYTE (2100 mg/kg, 72 h, time 3 day): 23.33 CELLS/uL; ABSOLUTE SEGMENTED NEUTROPHIL (2100 mg/kg, 72 h, time 3 day): 509.33 CELLS/uL; BASOPHIL (2100 mg/kg, 72 h, time 3 day): 0%; EOSINOPHIL (2100 mg/kg, 72 h, time 3 day): 0.17%; ERYTHROCYTE COUNT (2100 mg/kg, 72 h, time 3 day): 5.8 x10E6/uL; HEMATOCRIT (2100 mg/kg, 72 h, time 3 day): 38.27%; HEMOGLOBIN (2100 mg/kg, 72 h, time 3 day): 13.57 G/DL; LEUKOCYTE COUNT (2100 mg/kg, 72 h, time 3 day): 7.27 x10E3/uL; LYMPHOCYTE (2100 mg/kg, 72 h, time 3 day): 92.5%; MEAN CORPUSCULAR HEMOGLOBIN (2100 mg/kg, 72 h, time 3 day): 23.42 pg; MEAN CORPUSCULAR HEMOGLOBIN CONCENTRATION (2100 mg/kg, 72 h, time 3 day): 35.45 G/DL; MONOCYTE (2100 mg/kg, 72 h, time 3 day): 0.33%; NEUTROPHIL (2100 mg/kg, 72 h, time 3 day): 7%; NUCLEATED RED BLOOD CELLS (2100 mg/kg, 72 h, time 3 day): 0 /100WBC; PLATELET COUNT (2100 mg/kg, 72 h, time 3 day): 1059 x10E3/uL; ALANINE AMINOTRANSFERASE (2100 mg/kg, 72 h, time 3 day): 105.67 u/L; ALBUMIN (2100 mg/kg, 72 h, time 3 day): 4.47 G/DL; ALKALINE PHOSPHATASE (2100 mg/kg, 72 h, time 3 day): 224.5 u/L; ASPARTATE AMINOTRANSFERASE (2100 mg/kg, 72 h, time 3 day): 117.33 u/L; BLOOD UREA NITROGEN (2100 mg/kg, 72 h, time 3 day): 14.5 mg/dL; CARBON DIOXIDE (2100 mg/kg, 72 h, time 3 day): 31.33 mmol/L; CHLORIDE (2100 mg/kg, 72 h, time 3 day): 100.17 MEQ/L; CHOLESTEROL (2100 mg/kg, 72 h, time 3 day): 99.33 mg/dL; CREATINE PHOSPHOKINASE (2100 mg/kg, 72 h, time 3 day): 191 u/L; CREATININE (2100 mg/kg, 72 h, time 3 day): 0.22 mg/dL; GLUCOSE (2100 mg/kg, 72 h, time 3 day): 143.67 mg/dL; LACTATE DEHYDROGENASE (2100 mg/kg, 72 h, time 3 day): 109.83 u/L; LIPASE (2100 mg/kg, 72 h, time 3 day): 10.33 u/L; PHOSPHORUS (2100 mg/kg, 72 h, time 3 day): 9.67 mg/dL; SODIUM (2100 mg/kg, 72 h, time 3 day): 146.58 MEQ/L; TOTAL BILIRUBIN (2100 mg/kg, 72 h, time 3 day): 0.17 mg/dL; TOTAL PROTEIN (2100 mg/kg, 72 h, time 3 day): 6.25 G/DL; ABSOLUTE BASOPHIL (2100 mg/kg, […], time 7 day): 0 CELLS/uL; ABSOLUTE EOSINOPHIL (2100 mg/kg, […], time 7 day): 0 CELLS/uL; ABSOLUTE LYMPHOCYTE (2100 mg/kg, […], time 7 day): 6108.5 CELLS/uL; ABSOLUTE MONOCYTE (2100 mg/kg, […], time 7 day): 208.75 CELLS/uL; ABSOLUTE SEGMENTED NEUTROPHIL (2100 mg/kg, […], time 7 day): 1557.75 CELLS/uL; BASOPHIL (2100 mg/kg, […], time 7 day): 0%; EOSINOPHIL (2100 mg/kg, […], time 7 day): 0%; ERYTHROCYTE COUNT (2100 mg/kg, […], time 7 day): 6.06 x10E6/uL; HEMATOCRIT (2100 mg/kg, […], time 7 day): 37.55%; HEMOGLOBIN (2100 mg/kg, […], time 7 day): 14.95 G/DL; LEUKOCYTE COUNT (2100 mg/kg, […], time 7 day): 7.88 x10E3/uL; LYMPHOCYTE (2100 mg/kg, […], time 7 day): 79.5%; MEAN CORPUSCULAR HEMOGLOBIN (2100 mg/kg, […], time 7 day): 24.67 pg; MEAN CORPUSCULAR HEMOGLOBIN CONCENTRATION (2100 mg/kg, […], time 7 day): 39.83 G/DL; MONOCYTE (2100 mg/kg, […], time 7 day): 2.5%; NEUTROPHIL (2100 mg/kg, […], time 7 day): 18%; NUCLEATED RED BLOOD CELLS (2100 mg/kg, […], time 7 day): 0 /100WBC; PLATELET COUNT (2100 mg/kg, […], time 7 day): 396 x10E3/uL; ALANINE AMINOTRANSFERASE (2100 mg/kg, […], time 7 day): 452.75 u/L; ALBUMIN (2100 mg/kg, […], time 7 day): 4.22 G/DL; ALKALINE PHOSPHATASE (2100 mg/kg, […], time 7 day): 271.25 u/L; ASPARTATE AMINOTRANSFERASE (2100 mg/kg, […], time 7 day): 1219.25 u/L; BLOOD UREA NITROGEN (2100 mg/kg, […], time 7 day): 15.25 mg/dL; CARBON DIOXIDE (2100 mg/kg, […], time 7 day): 29 mmol/L; CHLORIDE (2100 mg/kg, […], time 7 day): 103 MEQ/L; CHOLESTEROL (2100 mg/kg, […], time 7 day): 75.75 mg/dL; CREATINE PHOSPHOKINASE (2100 mg/kg, […], time 7 day): 261 u/L; CREATININE (2100 mg/kg, […], time 7 day): 0.25 mg/dL; GLUCOSE (2100 mg/kg, […], time 7 day): 147.75 mg/dL; LACTATE DEHYDROGENASE (2100 mg/kg, […], time 7 day): 101.25 u/L; LIPASE (2100 mg/kg, […], time 7 day): 10.25 u/L; PHOSPHORUS (2100 mg/kg, […], time 7 day): 7.55 mg/dL; SODIUM (2100 mg/kg, […], time 7 day): 147.12 MEQ/L; TOTAL BILIRUBIN (2100 mg/kg, […], time 7 day): 0.33 mg/dL; TOTAL PROTEIN (2100 mg/kg, […], time 7 day): 5.7 G/DL
